From patent US6342602B1, “Aryl or heteroaryl amides of tetrahydronaphthalene, chroman, thichroman and 1,2,3,4-tetrahydroquinolinecarboxlic acids, having an electron withdrawing substituent in the aromatic or heteroaromatic moiety, having retinoid-like biological activity” (Allergan Sales, Inc., priority 1995, dated 2002) come the findings set out here.

Common to all, as to assay: Ligand binding assay
One assay concerns the target T1, RXRα (Homo sapiens, UniProt P19793).
T1 construct: made in house; used as extract protein
T1 sequence (P19793 1-462): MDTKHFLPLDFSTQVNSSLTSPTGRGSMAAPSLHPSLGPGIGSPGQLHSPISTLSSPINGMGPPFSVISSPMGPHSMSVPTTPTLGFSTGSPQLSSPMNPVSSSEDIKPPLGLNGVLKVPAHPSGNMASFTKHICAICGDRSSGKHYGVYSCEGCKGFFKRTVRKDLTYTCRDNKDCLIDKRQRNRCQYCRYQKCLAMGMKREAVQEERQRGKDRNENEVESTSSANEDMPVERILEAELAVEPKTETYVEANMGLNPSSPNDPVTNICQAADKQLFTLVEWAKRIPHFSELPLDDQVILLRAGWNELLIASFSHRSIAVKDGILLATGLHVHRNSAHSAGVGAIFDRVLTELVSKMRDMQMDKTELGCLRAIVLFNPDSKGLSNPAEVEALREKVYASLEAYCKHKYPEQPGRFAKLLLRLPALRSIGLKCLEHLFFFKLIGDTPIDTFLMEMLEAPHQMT
As to conditions: receptor expressed in Baculovirus; competition with [3H] retinoic acid; Cheng-Prusoff from IC50. On the procedure: (§1) A holoreceptor transactivation assay and a ligand binding assay which measure the ability of the compounds of the invention to bind to the several retinoid receptor subtypes, respectively, are described in published PCT Application No. WO WO93/11755 (particularly on pages 30-33 and 37-41) published on Jun. 24, 1993, the specification of which is also incorporated herein by reference. A description of the ligand binding assay is also provided below.
(§2) All binding assays were performed in a similar fashion. All six receptor types were derived from the expressed receptor type (RAR α, β, τ and RXR α, β, τ) expressed in Baculovirus. Stock solutions of all compounds were prepared as 10 mM ethanol solutions and serial dilutions carried out into 1:1 DMSO; ethanol. Assay buffers consisted of the following for all six receptor assays: 8% glycerol, 120 mM KCl, 8 mM Tris, 5 mM CHAPS 4 mM DTT and 0.24 mM PMSF, pH-7.4@room temperature.
(§3) All receptor biding assays were performed in the same manner. The final assay volume was 250 μl and contained from […] of extract protein depending on receptor being assayed along with 5 nM of [^3H) alltrans retinoic acid or 10 nM [^3H) 9-cis retinoic acid and varying concentrations of competing ligand at concentrations that ranged from 0-10^−5 M. The assays were formatted for a 96 well minitube system. Incubations were carried out at 4° C. until equilibrium was achieved. Non-specific binding was defined as that binding remaining in the presence of 1000 nM of the appropriate unlabeled retinoic acid isomer. At the end of the incubation period, 50 μl of 6.25% hydroxyapitite was added in the appropriate wash buffer. The wash buffer consisted of 100 mM KCl, 10 mM Tris and either 5 mM CHAPS (RXR α, β, τ) or 0.5% Triton X-100 (RAR α, β, τ). The mixture was vortexed and incubated for 10 minutes at 4° C., centrifuged and the supernatant removed. The hydroxyapitite was washed three more times with the appropriate wash buffer. The receptor-ligand complex was adsorbed by the hydroxyapitite. The amount of receptor-ligand complex was determined by liquid scintillation counting of hydroxyapitite pellet.
(§4) After correcting for non-specific binding, IC50 values were determined. […] The IC50 value was determined graphically from a loglogit plot of the data. The Kd values were determined by application of the ChengPrussof equation to the IC50 values, the labeled ligand concentration and the Kd of the labeled ligand.
(§5) The results of ligand binding assay are expressed in Kd numbers. (See Cheng et al. Biochemical Pharmacology Vol. 22 pp 3099-3108, expressly incorporated herein by reference.)

In a further assay the target is T2, RARΓ (Homo sapiens, UniProt P13631).
T2 construct: made in house; used as extract protein
T2 sequence (P13631 1-454): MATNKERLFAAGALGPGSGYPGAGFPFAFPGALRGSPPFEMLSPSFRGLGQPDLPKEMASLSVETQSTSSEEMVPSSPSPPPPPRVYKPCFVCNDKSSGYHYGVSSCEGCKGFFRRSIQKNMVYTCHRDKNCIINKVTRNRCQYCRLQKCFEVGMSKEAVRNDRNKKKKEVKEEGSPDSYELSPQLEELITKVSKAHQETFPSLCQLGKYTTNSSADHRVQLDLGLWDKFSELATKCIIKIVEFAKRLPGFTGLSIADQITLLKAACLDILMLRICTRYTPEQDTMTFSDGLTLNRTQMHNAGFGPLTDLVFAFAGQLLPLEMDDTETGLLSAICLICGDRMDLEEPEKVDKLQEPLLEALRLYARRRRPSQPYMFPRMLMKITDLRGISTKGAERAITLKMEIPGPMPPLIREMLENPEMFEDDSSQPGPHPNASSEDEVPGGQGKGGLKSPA
How it is done:
as §1, §2, §3, §4, §5

In the next assay the target is T3, RXRΓ (Homo sapiens, UniProt P48443).
T3 construct: made in house; used as extract protein
T3 sequence (P48443 1-463): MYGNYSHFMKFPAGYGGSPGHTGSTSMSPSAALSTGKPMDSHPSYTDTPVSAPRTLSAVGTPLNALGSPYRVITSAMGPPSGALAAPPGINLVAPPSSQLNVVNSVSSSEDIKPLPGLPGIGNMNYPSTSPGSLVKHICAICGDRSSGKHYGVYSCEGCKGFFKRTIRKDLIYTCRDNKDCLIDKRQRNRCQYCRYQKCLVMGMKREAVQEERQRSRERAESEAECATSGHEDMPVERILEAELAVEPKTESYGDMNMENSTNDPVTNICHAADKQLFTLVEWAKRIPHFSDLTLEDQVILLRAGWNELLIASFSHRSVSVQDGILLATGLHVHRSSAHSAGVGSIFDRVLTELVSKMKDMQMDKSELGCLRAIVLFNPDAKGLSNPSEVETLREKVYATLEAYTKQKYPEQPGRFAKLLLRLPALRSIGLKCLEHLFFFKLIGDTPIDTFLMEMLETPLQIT
Conditions: receptor expressed in Baculovirus; competition with [3H] retinoic acid; Cheng-Prusoff from IC50. On the procedure:
as §1, §2, §3, §4, §5

A further assay addresses T4, RARα (Homo sapiens, UniProt P10276).
T4 construct: made in house; used as extract protein
T4 sequence (P10276 1-462): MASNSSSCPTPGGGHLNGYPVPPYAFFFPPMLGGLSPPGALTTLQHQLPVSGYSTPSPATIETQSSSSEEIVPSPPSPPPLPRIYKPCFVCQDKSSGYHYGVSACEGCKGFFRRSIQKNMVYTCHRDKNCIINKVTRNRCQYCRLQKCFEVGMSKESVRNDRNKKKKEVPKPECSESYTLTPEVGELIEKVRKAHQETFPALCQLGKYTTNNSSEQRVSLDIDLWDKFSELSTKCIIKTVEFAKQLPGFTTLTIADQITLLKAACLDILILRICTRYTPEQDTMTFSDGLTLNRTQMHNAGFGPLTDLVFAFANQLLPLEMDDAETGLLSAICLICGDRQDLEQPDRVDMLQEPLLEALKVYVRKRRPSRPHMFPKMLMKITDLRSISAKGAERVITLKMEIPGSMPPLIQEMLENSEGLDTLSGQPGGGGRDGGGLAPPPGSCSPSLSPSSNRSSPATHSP
How it is done: as §1, §2, §3, §4, §5

[1] abbreviates: receptor expressed in Baculovirus, competition with [3H] retinoic acid, Cheng-Prusoff from IC50, read-out: Kd RARΓ.
Setting [2] is: receptor expressed in Baculovirus, competition with [3H] retinoic acid, Cheng-Prusoff from IC50, read-out: Kd RARα.

Where two headings read alike, the source gives them in different places.

For orientation: Kd means a measure of binding affinity in units of concentration. Turning to `CC1(C)CCC(C)(C)c2cc(C(=O)Nc3ccc(C(=O)O)c(F)c3)ccc21` [Compound 2], the Kd at RXRα was over 1 µM; on RARΓ (setting [1]) it was over 1 µM; at RXRΓ it was over 1 µM; at RARα (setting [2]), 0.0019 µM.
As for `CC1(C)CCC(C)(C)c2c(Br)cc(C(=O)Nc3ccc(C(=O)O)c(F)c3)cc21` [Compound 6], the Kd on RXRα is over 1 µM; on RARΓ (setting [1]) it was over 1 µM; at RXRΓ it was over 1 µM; on RARα (setting [2]), 0.0013 µM.
As for `CC1(C)CCC(C)(C)c2cc(C(=S)Nc3ccc(C(=O)O)cc3)ccc21` [Compound 26], the Kd was over 1 µM at RXRα, over 1 µM on RARΓ (setting [1]), over 1 µM at RXRΓ and 0.015 µM on RARα (setting [2]).
For the compound `Cc1cc(C(=O)Nc2ccc(C(=O)O)c(F)c2)cc2c1OC(C)(C)CC2(C)C` [Compound 22], the Kd on RXRα is over 1 µM; on RARΓ (setting [1]), over 1 µM; on RXRΓ, over 1 µM; at RARα (setting [2]), 0.057 µM.
As for `CC1(C)CC(C)(C)c2cc(C(=O)Nc3ccc(C(=O)O)c(F)c3)ccc2O1` [Compound 32], the dissociation constant (Kd) was over 1 µM at RXRα, over 1 µM at RARΓ (setting [1]), over 1 µM on RXRΓ and 0.162 µM at RARα (setting [2]).
For the compound `CC1(C)CC(C)(C)c2cc(C(=O)Nc3ccc(C(=O)O)c(F)c3)cc(Br)c2O1` [Compound 12], the Kd on RXRα is over 1 µM; at RARΓ (setting [1]), over 1 µM; at RXRΓ, over 1 µM; at RARα (setting [2]) it was 0.024 µM.
Regarding `CC1(C)CCC(C)(C)c2c1cc(C(=O)Nc1cc(F)c(C(=O)O)c(F)c1)c(O)c2Br` [Compound 36], the Kd is over 1 µM on RXRα, over 1 µM at RARΓ, over 1 µM at RXRΓ and 0.0023 µM on RARα.
With `CC1(C)CC(C)(C)c2cc(C(=O)Nc3ccc(C(=O)O)c(F)c3)cc(N=[N+]=[N-])c2O1` [Compound 16, 2-Fluoro-4-[(21′,2′,4′,4′-tetramethyl-8′-azidochroman-6′-yl)carbamoyl]benzoic Acid], the Kd on RXRα was over 1 µM; on RARΓ (setting [1]), over 1 µM; at RXRΓ, over 1 µM; on RARα (setting [2]) it was 0.052 µM.
Consider `CC1(C)CC(C)(C)c2cc(C(=O)Nc3ccc(C(=O)O)c(F)c3)cc(C(F)(F)F)c2O1` [Compound 14], for which the Kd was over 1 µM at RXRα, over 1 µM at RARΓ (setting [1]), over 1 µM on RXRΓ and 0.014 µM at RARα (setting [2]).
Turning to `CC1(C)CCC(C)(C)c2cc(C(=O)Nc3cc(F)c(C(=O)O)c(F)c3)ccc21` [Compound 38], the Kd at RXRα was over 1 µM; at RARΓ (setting [1]) it was over 1 µM; on RXRΓ, over 1 µM; on RARα (setting [2]), 0.009 µM.
With `CC1(C)CCC(C)(C)c2cc(C(=O)Nc3ccc(C(=O)O)cc3)c(F)cc21` [Compound 4], the Kd is over 1 µM on RXRα, 0.096 µM at RARΓ (setting [1]), over 1 µM at RXRΓ and 0.023 µM on RARα (setting [2]).
Regarding `CC1(C)CC(C)(C)c2cc(C(=O)Nc3cc(F)c(C(=O)O)c(F)c3)cc(C(F)(F)F)c2O1` [Compound 18, 2,6-Difluoro-4-[(2′,2′,4′,4′-tetramethyl-8′-trifluoromethylchroman-6′-yl)carbamoyl]benzoic Acid], the Kd on RXRα is over 1 µM; at RARΓ (setting [1]), over 1 µM; at RXRΓ it was over 1 µM; at RARα (setting [2]), 0.051 µM.
On to `CC1(C)CCC(C)(C)c2cc(C(=O)Nc3ccc(C(=O)O)c(F)c3)c(O)cc21` [Compound 8], for which the Kd at RXRα was over 1 µM; on RARΓ (setting [1]) it was over 1 µM; on RXRΓ, over 1 µM; at RARα (setting [2]), 0.003 µM.
As to `CC1(C)CC(C)(C)c2cc(C(=O)Nc3ccc(C(=O)O)c(F)c3)cc(I)c2O1` [Compound 20], the Kd at RXRα is over 1 µM; on RARΓ (setting [1]) it was over 1 µM; at RXRΓ, over 1 µM; at RARα (setting [2]) it was 0.016 µM.
